According to patent publication US20230285431A1, “Human Milk Oligosaccharide for Improving Health of Intestinal Microenvironment and Use Thereof” (Inner Mongolia Yili Industrial Group Co., Ltd., priority 2020, published 2023):
“Also recorded” adds a separate entry of the source.

Assays:
Format in all cases: cell-based
[1] = test system: infant fecal flora of the simulated proximal colon; test: Small batch fermentation with each HMO in simulated proximal colon environment; conditions: for formic acid produced, proximal colon: FIG. 8; for acetic acid produced, proximal colon: FIG. 9; for total short chain fatty acids produced, proximal colon: FIG. 7; for pressure changes (gas production) in the proximal colon: FIG. 4A
Excerpt: Using a SHIME device (see the schematic diagram in FIG. 1A), fresh fecal samples containing bacteria flora were obtained from a healthy infant naturally delivered and exclusively breastfed, and inoculated into containers corresponding to the proximal colon and distal colon. Food material was fed to the stomach/small intestine end of the device three times a day for two weeks to support the growth and colonization of the flora in the proximal colon and distal colon. Here, the food material that was digested by the small intestine and entered the colon was prepared on the basis of the standard food material provided by ProDigest, the manufacturer of the SHIME device, with adjustment to the ratio of lactose, casein and whey protein; the standard food material was composed of: pectin (1 g/L), glucose (1 g/L), starch (1 g/L), cellobiose (1 g/L), proteose peptone (2 g/L), mucin (6 g/L)), lactose (2.1 g/L), casein (0.2 g/L), whey-lactalbumin (2.7 g/L), L-cysteine hydrochloride (0.2 g/L). The ratio of lactose, casein and whey protein in the food materials in each experiment of the present disclosure was adjusted to about 12:1:15, with reference to Le Blay et al. (2010), and stable and balanced nutrients were maintained, so as to simulate the food composition to which the infant's intestinal microecology may be exposed during regular breastfeeding or infant formula feeding. After the infant fecal flora was stabilized in the SHIME model for two weeks, the proximal colon and distal colon were sampled, aliquoted in glycerol to form a stock solution, and stored under anaerobic conditions at −80° C. After the infant flora was inoculated into the SHIME model and stably grown for 2 weeks (as described in the aforementioned “Fecal inoculation and culture in SHIME device”), 10 mL of the flora in the proximal colon and distal colon was taken and respectively transferred to fermentation flasks under anaerobic conditions for small batch fermentation. On the basis of 43 mL basal buffer (for adjusting pH and simulating the corresponding colonic environment), each fermentation flask also contained 20 mL PBS buffer (for dissolving and introducing the HMO test substance) supplemented with different amounts of HMOs, so that the final concentration of each HMO was 0.02 g/L, 0.2 g/L, or 2 g/L, the pH of the proximal colon was set to 5.6, and the pH of the distal colon was set to 6.5. The flasks were incubated at 37° C. with shaking. During incubation, the pressure was measured at 0, 6 hours, 24 hours and 48 hours, followed by sampling for detection of pH and short chain fatty acids. Measurements were repeated three times. During the HMO intervention, the gas production in each group was compared by measuring changes in pressure. Short chain fatty acid analysis including isobutyric acid, isovaleric acid, butyric acid, propionic acid, acetic acid, and formic acid, were analyzed by HPLC. A two-tailed, paired t-test was performed on the data results. When there is a significant difference between two groups, and p<0.05, it is indicated with an asterisk *. Two asterisks ** indicate p<0.01. Three asterisks *** indicate p<0.001.

[2] = test system: infant fecal flora of the simulated distal colon; test: Small batch fermentation with each HMO in simulated distal colon environment; conditions: for formic acid produced, distal colon / acetic acid produced, distal colon / propionic acid produced, distal colon / butyric acid produced, distal colon: 48 hours of fermentation; for formic acid produced, distal colon: FIG. 13; for acetic acid produced, distal colon: FIG. 14; for propionic acid produced, distal colon: FIG. 15; for butyric acid produced, distal colon: FIG. 16; for total short chain fatty acids produced, distal colon: FIG. 12; for production of isobutyric acid, distal colon / production of isovaleric acid, distal colon: small batch fermentation; for production of isobutyric acid, distal colon: FIG. 6A; for pH changes of the distal colon over time: starting pH 6.5, FIG. 3B; for production of isovaleric acid, distal colon: FIG. 6B
Excerpt: (§1) Using a SHIME device (see the schematic diagram in FIG. 1A), fresh fecal samples containing bacteria flora were obtained from a healthy infant naturally delivered and exclusively breastfed, and inoculated into containers corresponding to the proximal colon and distal colon. Food material was fed to the stomach/small intestine end of the device three times a day for two weeks to support the growth and colonization of the flora in the proximal colon and distal colon. Here, the food material that was digested by the small intestine and entered the colon was prepared on the basis of the standard food material provided by ProDigest, the manufacturer of the SHIME device, with adjustment to the ratio of lactose, casein and whey protein; the standard food material was composed of: pectin (1 g/L), glucose (1 g/L), starch (1 g/L), cellobiose (1 g/L), proteose peptone (2 g/L), mucin (6 g/L)), lactose (2.1 g/L), casein (0.2 g/L), whey-lactalbumin (2.7 g/L), L-cysteine hydrochloride (0.2 g/L). The ratio of lactose, casein and whey protein in the food materials in each experiment of the present disclosure was adjusted to about 12:1:15, with reference to Le Blay et al. (2010), and stable and balanced nutrients were maintained, so as to simulate the food composition to which the infant's intestinal microecology may be exposed during regular breastfeeding or infant formula feeding. After the infant fecal flora was stabilized in the SHIME model for two weeks, the proximal colon and distal colon were sampled, aliquoted in glycerol to form a stock solution, and stored under anaerobic conditions at −80° C.
After the infant flora was inoculated into the SHIME model and stably grown for 2 weeks (as described in the aforementioned “Fecal inoculation and culture in SHIME device”), 10 mL of the flora in the proximal colon and distal colon was taken and respectively transferred to fermentation flasks under anaerobic conditions for small batch fermentation. On the basis of 43 mL basal buffer (for adjusting pH and simulating the corresponding colonic environment), each fermentation flask also contained 20 mL PBS buffer (for dissolving and introducing the HMO test substance) supplemented with different amounts of HMOs, so that the final concentration of each HMO was 0.02 g/L, 0.2 g/L, or 2 g/L, the pH of the proximal colon was set to 5.6, and the pH of the distal colon was set to 6.5. The flasks were incubated at 37° C. with shaking. During incubation, the pressure was measured at 0, 6 hours, 24 hours and 48 hours, followed by sampling for detection of pH and short chain fatty acids. Measurements were repeated three times.
During the HMO intervention, the gas production in each group was compared by measuring changes in pressure. Short chain fatty acid analysis including isobutyric acid, isovaleric acid, butyric acid, propionic acid, acetic acid, and formic acid, were analyzed by HPLC.
(§2) A two-tailed, paired t-test was performed on the data results. When there is a significant difference between two groups, and p<0.05, it is indicated with an asterisk *. Two asterisks ** indicate p<0.01. Three asterisks *** indicate p<0.001.

[3] = test system: infant fecal flora of the simulated distal colon (SHIME model); test: SHIME fermentation with each HMO in simulated distal colon environment; conditions: for decrease ratio of butyric acid, Day 14 versus Day 1, compared to control without HMO: 14 days of fermentation; for Butyric acid, Log2 (day 14/day 1): HMO 2 g/L in feed, 14 days of HMO intervention, biological replicate 1
Excerpt: as §1
The infant fecal flora sampled and stored as in “Fecal inoculation and culture in SHIME device” was inoculated into the SLIME model to investigate the fermentation of HMOs in the SHIME device. Two batches of experiments were done sequentially, and three sample groups (or control) were simultaneously done in each batch of experiments. In three sets of experimental devices, the devices simulating the proximal colon and distal colon were inoculated separately (see the schematic diagram of FIG. 1B). Food material was fed three times a day, and after 4 days of incubation, an HMO was blended into the feed food material (no HMO was added to the control group). 280 mg of HMO (at a concentration of 2 g/L) and 60 mL of pancreatic juice were added into 140 mL of a stock solution for each food material. Only one experiment was performed for each set of HMO and control, so the biological replicate was 1. SHIME fermentation continued until Day 14 after the HMO intervention, and samples were taken for detection at different time periods during the fermentation period.
as §2

[4] = HMO 2 g/L, 48 hours of fermentation

`CC(=O)N[C@H]1[C@H]([C@H](O)[C@H](O)CO)O[C@@](O[C@H]2[C@@H](O)[C@@H](CO)O[C@@H](O[C@H]3[C@H](O)[C@@H](O)C(O)O[C@@H]3CO)[C@@H]2O)(C(=O)O)C[C@@H]1O` (stereo partly drawn) [3-SL, 3′-sialyl lactose] was tested, and the “formic acid produced, proximal colon” value ([1]; 48 hours of fermentation) was “significantly increased”, the “acetic acid produced, proximal colon” value ([1]; 48 hours of fermentation) was “significantly increased; also recorded: more significant” and the “total short chain fatty acids produced, proximal colon” value ([1]; HMO 2 g/L, 24 hours of fermentation) was “produces more SCFA”. The “total short chain fatty acids produced, proximal colon” value [1, 4] was “significantly more SCFA”, the “pressure changes (gas production) in the proximal colon” value (“pressure changes (gas production)” for short) ([1]; HMO 2 g/L) was “higher pressure” and the “formic acid produced, distal colon” value [2] was “more significant”. For the same molecule, the “acetic acid produced, distal colon” value [2] was “more significant”, the “propionic acid produced, distal colon” value [2] was “more significant” and the “butyric acid produced, distal colon” value [2] was “significantly increased”. For the same molecule, the “total short chain fatty acids produced, distal colon” value ([2]; HMO 0.02 g/L, 6 hours) was “relatively more short chain fatty acids”, the “production of isobutyric acid, distal colon” value (from here on “production of isobutyric acid”) [2] was “significantly reduce” and the “decrease ratio of butyric acid, Day 14 versus Day 1, compared to control without HMO” value (shortened to “decrease ratio … to control without HMO”) [3] was “the smallest”. The “Butyric acid, Log2 (day 14/day 1)” value [3] was −0.13.
2′-fucosyllactose [2′-FL] was tested, and the “pH changes of the distal colon over time” value ([2]; HMO 2 g/L) was “tend to significantly lower the pH”, the “production of isobutyric acid” value [2] was “significantly reduce” and the “production of isovaleric acid, distal colon” value [2] was “most potent; also recorded: significantly reduce”. The “decrease ratio … to control without HMO” value [3] was “good improving effect compared to the control” and the “Butyric acid, Log2 (day 14/day 1)” value [3] was −0.67.
`CC(=O)N[C@H]1[C@H](O[C@H]2[C@@H](O)[C@@H](CO)O[C@@H](O[C@H]3[C@H](O)[C@@H](O)C(O)O[C@@H]3CO)[C@@H]2O)O[C@H](CO)[C@@H](O)[C@@H]1O[C@@H]1O[C@H](CO)[C@H](O)[C@H](O)[C@H]1O` (stereo partly drawn) [LNT, Lacto-N-tetraose] was tested, and the “pressure changes (gas production)” value ([1]; HMO 0.2 g/L) was “tends to produce gas better”, the “formic acid produced, distal colon” value [2] was “more significant” and the “acetic acid produced, distal colon” value [2] was “more significant”. For the same molecule, the “total short chain fatty acids produced, distal colon” value ([2]; HMO 0.02 g/L, 6 hours) was “relatively more short chain fatty acids”, the “pH changes over time” value ([2]; HMO 0.2 g/L, colon section not given) was “tends to better lower the pH” and the “production of isobutyric acid” value [2] was “significantly reduce”. The “decrease ratio … to control without HMO” value [3] was “good improving effect compared to the control” and the “Butyric acid, Log2 (day 14/day 1)” value [3] was −0.70.
3-fucosyllactose [3-FL] was tested, and the “formic acid produced, distal colon” value [2] was “more significant”, the “propionic acid produced, distal colon” value [2] was “more significant” and the “total short chain fatty acids produced, distal colon” value ([2]; HMO 2 g/L, 24 hours) was “relatively more short chain fatty acids”. For the same molecule, the “pH changes of the distal colon over time” value ([2]; HMO 2 g/L) was “tend to significantly lower the pH”, the “production of isobutyric acid” value [2] was “significantly reduce” and the “production of isovaleric acid, distal colon” value [2] was “significantly reduce”. For the same molecule, the “Butyric acid, Log2 (day 14/day 1)” value [3] was −0.33.
For `CC(=O)N[C@H]1[C@H]([C@H](O)[C@H](O)CO)O[C@@](OC[C@H]2O[C@@H](O[C@H]3[C@H](O)[C@@H](O)[C@H](O)O[C@@H]3CO)[C@H](O)[C@@H](O)[C@H]2O)(C(=O)O)C[C@@H]1O` [6-SL, 6′-sialyl lactose], the “formic acid produced, proximal colon” value ([1]; 48 hours of fermentation) was “significantly increased; also recorded: more significant”, the “acetic acid produced, proximal colon” value ([1]; 48 hours of fermentation) was “significantly increased” and the “propionic acid produced, proximal colon” value ([1]; 48 hours of fermentation, FIG. 10) was “significantly increased”. For the same molecule, the “butyric acid produced, proximal colon” value ([1]; 48 hours of fermentation, FIG. 11) was “significantly increase”, the “total short chain fatty acids produced, proximal colon” value [1, 4] was “significantly more SCFA” and the “pressure changes (gas production)” value ([1]; HMO 2 g/L) was “higher pressure”. The “formic acid produced, distal colon” value [2] was “more significant”, the “acetic acid produced, distal colon” value [2] was “more significant” and the “butyric acid produced, distal colon” value [2] was “significantly increased”. The “total short chain fatty acids produced, distal colon” value ([2]; HMO 2 g/L, 24 hours) was “relatively more short chain fatty acids”, the “decrease ratio … to control without HMO” value [3] was “good improving effect compared to the control” and the “Butyric acid, Log2 (day 14/day 1)” value [3] was −0.66.
